Measured values: ChEMBL document CHEMBL5463723, “Data for DCP probe BIBO3304” (2023)

Legend:
[1] = molecular target: Glutamate receptor ionotropic, NMDA 1 (Rattus norvegicus) (UniProt P35439); assay: Activity against NMDAGLSI/R in the Eurofins Panlabs screen (BI) by Radioactive Assay; conditions: Compound concentration 10.0 uM
[2] = molecular target: Muscarinic acetylcholine receptor M1 (Rattus norvegicus) (UniProt P08482); assay: Activity against M1/R in the Eurofins Panlabs screen (BI) by Radioactive Assay; conditions: Compound concentration 10.0 uM
[3] = molecular target: Prostaglandin G/H synthase 2 (Homo sapiens) (UniProt P35354); assay: Inhibitor of COX-2 in the Eurofins Cerep SafetyScreen44 (BI) by Fluorimetry (Cerep_4186); conditions: Compound concentration 10.0 uM
[4] = molecular target: Serotonin 1 (5-HT1) receptor (Rattus norvegicus) (UniProt P28564+P30940+P19327+P28565); assay: Activity against 5HT1/R in the Eurofins Panlabs screen (BI) by Radioactive Assay; format: protein assay; conditions: Compound concentration 10.0 uM
[5] = molecular target: Neuropeptide Y receptor type 4 (Rattus norvegicus, UniProt Q63447); assay: Radioligand binding assay (rat NPY4R, CHO cells); format: cell-based
[6] = molecular target: Calcitonin-gene-related peptide receptor; CALCRL/RAMP1 (Rattus norvegicus) (UniProt Q63118+Q9JJ74); assay: Activity against CGRP/R in the Eurofins Panlabs screen (BI) by Radioactive Assay; format: protein-complex assay; conditions: Compound concentration 10.0 uM
[7] = molecular target: Leukotriene C4 synthase (Cavia porcellus) (UniProt A6XA80); assay: Inhibitor of LTC4SYN in the Eurofins Panlabs screen (BI) by Radioactive Assay; conditions: Compound concentration […] uM
[8] = molecular target: Alpha-2B adrenergic receptor (Rattus norvegicus) (UniProt P19328); assay: Activity against ALPHA2B/R in the Eurofins Panlabs screen (BI); conditions: Compound concentration 10.0 uM
[9] = molecular target: Tyrosine-protein kinase Lck (Homo sapiens) (UniProt P06239); assay: Inhibitor of LCK_CE in the Eurofins Cerep SafetyScreen44 (BI) by lanthanide chelation excitation (Cerep_2906); conditions: Compound concentration 10.0 uM
[10] = molecular target: Cannabinoid receptor 1 (Homo sapiens) (UniProt P21554); assay: CB1 Eurofins-Cerep binding assay; conditions: Compound concentration 10.0 uM
[11] = molecular target: Vasopressin V1a receptor (Rattus norvegicus) (UniProt P30560); assay: Activity against V1/RA in the Eurofins Panlabs screen (BI) by Radioactive Assay; conditions: Compound concentration 10.0 uM
[12] = molecular target: Muscarinic acetylcholine receptor (Oryctolagus cuniculus) (UniProt A0A5F9DUN4); assay: Activity against M4/RB in the Eurofins Panlabs screen (BI) by Radioactive Assay; conditions: Compound concentration 10.0 uM
hERG (KCNH2) = hERG (KCNH2) (Homo sapiens, UniProt Q12809); assay: Inhibitor of HERG_DOFETILIDE in the Eurofins Cerep SafetyScreen44 (BI) by Scintillation counting (Cerep_4094); parameters: scale not given: the % may be the effect or the level left; conditions: probe [3H] dofetilide, compound concentration 10 uM, read-out: % Ctrl
[13] = molecular target: Interleukin-6 receptor subunit alpha (Homo sapiens) (UniProt P08887); assay: Activity against IL-6/H in the Eurofins Panlabs screen (BI) by SPA - blue shifted; conditions: Compound concentration 10.0 uM
Rattus norvegicus [14] = organism: Rattus norvegicus; assay: Inhibitor of CALCINEUPP2B in the Eurofins Panlabs screen (BI) by Radioactive Assay; conditions: Compound concentration 10.0 uM
[15] = molecular target: Calpain-1 catalytic subunit (Homo sapiens) (UniProt P07384); assay: Inhibitor of CALPAIN in the Eurofins Panlabs screen (BI) by FI - fluorescence intensity; conditions: Compound concentration 10.0 uM
[16] = molecular target: Nitric oxide synthase, inducible (Mus musculus) (UniProt P29477); assay: Activity against INOS in the Eurofins Panlabs screen (BI) by absorption of electromagnetic radiation; conditions: Compound concentration 10.0 uM
[17] = molecular target: Muscarinic acetylcholine receptor M3 (Rattus norvegicus) (UniProt P08483); assay: Activity against M3/R in the Eurofins Panlabs screen (BI) by Radioactive Assay; conditions: Compound concentration 10.0 uM
[18] = molecular target: Tumor necrosis factor (Homo sapiens) (UniProt P01375); assay: Activity against TNFA/HU/HELA in the Eurofins Panlabs screen (BI) by Radioactive Assay; conditions: Compound concentration 10.0 uM
[19] = molecular target: Histamine H3 receptor (Rattus norvegicus) (UniProt Q9QYN8); assay: Activity against H3/R in the Eurofins Panlabs screen (BI) by […]; conditions: Compound concentration 10.0 uM
[20] = molecular target: D(2) dopamine receptor (Homo sapiens) (UniProt P14416); assay: Agonist activity in the Eurofins Cerep SafetyScreen44 (BI) against D2SH_AGON by Scintillation counting (Cerep_1322); conditions: Compound concentration 10.0 uM
[21] = molecular target: Neutrophil elastase (Homo sapiens) (UniProt P08246); assay: Activity against ELASTASEPMN in the Eurofins Panlabs screen (BI) by absorption of electromagnetic radiation; conditions: Compound concentration 30.0 uM
[22] = molecular target: 3',5'-cyclic-AMP phosphodiesterase 4D (Homo sapiens) (UniProt Q08499); assay: Inhibitor of PDE4D2 in the Eurofins Cerep SafetyScreen44 (BI) by Scintillation counting (Cerep_4077); conditions: Compound concentration 10.0 uM
[23] = molecular target: Platelet-activating factor receptor (Oryctolagus cuniculus) (UniProt G1TEI7); assay: Activity against PAF/RB in the Eurofins Panlabs screen (BI) by Radioactive Assay; conditions: Compound concentration 10.0 uM
[24] = molecular target: D(3) dopamine receptor (Homo sapiens) (UniProt P35462); assay: Activity against D3/HU in the Eurofins Panlabs screen (BI) by Scintillation counting; conditions: Compound concentration 10.0 uM
[25] = molecular target: T1, Neuropeptide Y receptor type 2 (Homo sapiens, UniProt P49146); assay: Radioligand binding assay (NPY2R, SMS-KAN cells); format: cell-based
T1 sequence (P49146 whole entry): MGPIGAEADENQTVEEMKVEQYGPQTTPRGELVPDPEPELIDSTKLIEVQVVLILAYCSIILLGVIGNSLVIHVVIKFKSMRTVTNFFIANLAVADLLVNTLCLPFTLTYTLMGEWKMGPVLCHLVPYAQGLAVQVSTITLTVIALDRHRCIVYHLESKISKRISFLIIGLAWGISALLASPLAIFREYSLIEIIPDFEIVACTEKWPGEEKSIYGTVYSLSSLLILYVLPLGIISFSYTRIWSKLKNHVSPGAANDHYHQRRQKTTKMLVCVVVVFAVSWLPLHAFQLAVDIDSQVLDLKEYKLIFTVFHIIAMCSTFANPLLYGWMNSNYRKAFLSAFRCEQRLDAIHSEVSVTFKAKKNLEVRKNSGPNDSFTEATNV

Rattus norvegicus [26] = organism: Rattus norvegicus; assay: KV channel Eurofins-Cerep binding assay; parameters: ligand concentration 0.01 nM; conditions: Compound concentration 10.0 uM
[27] = molecular target: Acetyl-coenzyme A synthetase, cytoplasmic (Homo sapiens) (UniProt Q9NR19); assay: Inhibitor of ACOASYN in the Eurofins Panlabs screen (BI) by Radioactive Assay; conditions: Compound concentration 100.0 uM
[28] = molecular target: Protein kinase C alpha type (Homo sapiens) (UniProt P17252); assay: Inhibitor of PKCALPHA in the Eurofins Panlabs screen (BI) by Radioactive Assay; conditions: Compound concentration 10.0 uM
Cavia porcellus [29] = organism: Cavia porcellus; assay: Activity against SIGMA/NS/GP in the Eurofins Panlabs screen (BI) by Radioactive Assay; conditions: Compound concentration 10.0 uM
[30] = molecular target: Neprilysin (Homo sapiens) (UniProt P08473); assay: Activity against NEUTRALENDOP in the Eurofins Panlabs screen (BI) by absorption of electromagnetic radiation; conditions: Compound concentration 10.0 uM
[31] = molecular target: Sodium-dependent serotonin transporter (Homo sapiens) (UniProt P31645); assay: 5-HT transporter Eurofins-Cerep binding assay; parameters: ligand concentration 2 nM; conditions: Compound concentration 10.0 uM
Cavia porcellus [32] = organism: Cavia porcellus; assay: Activity against ANF/GP in the Eurofins Panlabs screen (BI) by Radioactive Assay; conditions: Compound concentration 10.0 uM

Cannabinoid receptor 1 (Homo sapiens), sequence (P21554 whole entry): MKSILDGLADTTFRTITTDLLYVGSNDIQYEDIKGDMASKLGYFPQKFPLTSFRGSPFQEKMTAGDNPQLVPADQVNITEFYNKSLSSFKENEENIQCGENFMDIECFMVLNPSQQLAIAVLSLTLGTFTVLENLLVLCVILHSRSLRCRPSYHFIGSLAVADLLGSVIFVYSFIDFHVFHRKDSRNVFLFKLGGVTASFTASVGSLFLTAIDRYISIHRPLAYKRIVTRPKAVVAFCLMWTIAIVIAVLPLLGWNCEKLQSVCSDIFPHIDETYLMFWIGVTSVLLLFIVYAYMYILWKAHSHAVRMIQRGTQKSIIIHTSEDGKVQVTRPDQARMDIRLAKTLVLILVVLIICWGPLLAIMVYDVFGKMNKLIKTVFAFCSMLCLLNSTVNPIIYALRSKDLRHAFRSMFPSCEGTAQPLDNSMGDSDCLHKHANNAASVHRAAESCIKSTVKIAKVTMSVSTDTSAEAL
Vasopressin V1a receptor (Rattus norvegicus), sequence (P30560 whole entry, looked up): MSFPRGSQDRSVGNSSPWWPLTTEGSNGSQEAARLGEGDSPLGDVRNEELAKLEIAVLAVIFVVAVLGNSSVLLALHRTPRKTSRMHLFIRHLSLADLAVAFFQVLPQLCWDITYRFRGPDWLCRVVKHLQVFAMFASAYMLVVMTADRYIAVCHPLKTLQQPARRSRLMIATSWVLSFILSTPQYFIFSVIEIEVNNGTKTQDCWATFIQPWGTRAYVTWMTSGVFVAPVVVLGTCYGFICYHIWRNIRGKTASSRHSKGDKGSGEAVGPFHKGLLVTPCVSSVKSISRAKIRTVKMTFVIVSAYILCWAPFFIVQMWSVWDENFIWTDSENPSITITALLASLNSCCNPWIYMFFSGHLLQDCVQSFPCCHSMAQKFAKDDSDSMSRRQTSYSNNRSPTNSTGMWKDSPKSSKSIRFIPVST
Neuropeptide Y receptor type 4, sequence (Q63447 whole entry): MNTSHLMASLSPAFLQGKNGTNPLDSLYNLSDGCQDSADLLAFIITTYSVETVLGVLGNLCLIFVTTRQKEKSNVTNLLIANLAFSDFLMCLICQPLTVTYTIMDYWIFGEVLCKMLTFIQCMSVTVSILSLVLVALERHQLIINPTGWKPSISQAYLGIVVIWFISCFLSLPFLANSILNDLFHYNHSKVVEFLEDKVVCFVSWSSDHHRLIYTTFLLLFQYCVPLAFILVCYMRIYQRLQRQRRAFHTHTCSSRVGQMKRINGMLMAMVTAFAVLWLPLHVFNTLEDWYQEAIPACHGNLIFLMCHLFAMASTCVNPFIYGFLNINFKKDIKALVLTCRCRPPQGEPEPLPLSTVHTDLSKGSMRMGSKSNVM
Neprilysin (Homo sapiens), sequence (P08473 whole entry): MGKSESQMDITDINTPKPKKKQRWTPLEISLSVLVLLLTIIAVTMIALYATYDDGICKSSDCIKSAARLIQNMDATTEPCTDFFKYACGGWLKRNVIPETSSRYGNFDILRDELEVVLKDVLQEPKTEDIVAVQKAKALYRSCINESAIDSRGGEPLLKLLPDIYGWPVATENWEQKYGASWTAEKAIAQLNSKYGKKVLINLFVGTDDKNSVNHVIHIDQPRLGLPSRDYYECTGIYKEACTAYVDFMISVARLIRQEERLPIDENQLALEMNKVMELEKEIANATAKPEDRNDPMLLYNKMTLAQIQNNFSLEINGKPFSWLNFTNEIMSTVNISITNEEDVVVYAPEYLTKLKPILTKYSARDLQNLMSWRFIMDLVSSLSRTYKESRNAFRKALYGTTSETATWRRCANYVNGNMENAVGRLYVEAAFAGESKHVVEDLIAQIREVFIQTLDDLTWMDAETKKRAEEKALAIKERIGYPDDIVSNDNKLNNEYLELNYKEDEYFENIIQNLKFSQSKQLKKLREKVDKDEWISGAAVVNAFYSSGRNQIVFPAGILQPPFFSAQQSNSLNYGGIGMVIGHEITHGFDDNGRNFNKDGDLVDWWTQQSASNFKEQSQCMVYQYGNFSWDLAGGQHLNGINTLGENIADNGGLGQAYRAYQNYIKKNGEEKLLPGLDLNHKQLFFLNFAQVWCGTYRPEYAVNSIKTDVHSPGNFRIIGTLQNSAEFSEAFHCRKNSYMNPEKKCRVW
3',5'-cyclic-AMP phosphodiesterase 4D (Homo sapiens), sequence (Q08499 whole entry): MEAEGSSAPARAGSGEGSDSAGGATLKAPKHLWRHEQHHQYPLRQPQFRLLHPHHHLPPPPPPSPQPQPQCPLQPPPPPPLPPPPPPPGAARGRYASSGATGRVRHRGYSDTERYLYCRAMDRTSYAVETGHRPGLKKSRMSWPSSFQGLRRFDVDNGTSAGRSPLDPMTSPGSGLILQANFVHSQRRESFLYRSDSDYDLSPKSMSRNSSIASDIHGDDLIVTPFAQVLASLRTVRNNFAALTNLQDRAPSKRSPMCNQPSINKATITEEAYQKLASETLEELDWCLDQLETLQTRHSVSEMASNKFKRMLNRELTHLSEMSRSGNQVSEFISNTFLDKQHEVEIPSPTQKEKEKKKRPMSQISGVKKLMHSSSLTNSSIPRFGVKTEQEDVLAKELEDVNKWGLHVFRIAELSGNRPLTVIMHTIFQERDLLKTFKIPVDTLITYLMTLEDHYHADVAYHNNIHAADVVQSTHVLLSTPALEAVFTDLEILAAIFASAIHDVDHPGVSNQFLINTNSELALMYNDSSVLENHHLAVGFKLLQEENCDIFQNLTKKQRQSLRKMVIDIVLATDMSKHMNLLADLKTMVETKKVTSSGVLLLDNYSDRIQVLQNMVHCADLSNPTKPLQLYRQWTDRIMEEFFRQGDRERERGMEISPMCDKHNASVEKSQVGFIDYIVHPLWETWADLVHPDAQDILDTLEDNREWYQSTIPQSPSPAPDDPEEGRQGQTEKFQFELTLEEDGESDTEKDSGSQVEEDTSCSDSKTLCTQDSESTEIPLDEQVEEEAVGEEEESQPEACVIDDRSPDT
Tyrosine-protein kinase Lck (Homo sapiens), sequence (P06239 2-509 limits assumed): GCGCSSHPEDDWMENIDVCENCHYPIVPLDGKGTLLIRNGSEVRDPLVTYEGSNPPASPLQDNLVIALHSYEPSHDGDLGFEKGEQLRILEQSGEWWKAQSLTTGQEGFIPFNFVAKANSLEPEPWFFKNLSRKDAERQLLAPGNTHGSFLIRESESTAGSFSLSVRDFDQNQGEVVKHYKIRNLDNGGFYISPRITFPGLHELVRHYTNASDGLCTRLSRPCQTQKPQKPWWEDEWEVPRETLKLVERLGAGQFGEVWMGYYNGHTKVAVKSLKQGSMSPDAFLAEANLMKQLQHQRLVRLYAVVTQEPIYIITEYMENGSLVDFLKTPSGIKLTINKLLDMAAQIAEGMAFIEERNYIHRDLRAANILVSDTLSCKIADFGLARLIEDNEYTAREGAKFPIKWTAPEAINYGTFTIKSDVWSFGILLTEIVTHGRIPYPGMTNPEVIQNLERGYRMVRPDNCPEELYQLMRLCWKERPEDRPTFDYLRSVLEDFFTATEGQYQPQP
Interleukin-6 receptor subunit alpha (Homo sapiens), sequence (P08887 whole entry): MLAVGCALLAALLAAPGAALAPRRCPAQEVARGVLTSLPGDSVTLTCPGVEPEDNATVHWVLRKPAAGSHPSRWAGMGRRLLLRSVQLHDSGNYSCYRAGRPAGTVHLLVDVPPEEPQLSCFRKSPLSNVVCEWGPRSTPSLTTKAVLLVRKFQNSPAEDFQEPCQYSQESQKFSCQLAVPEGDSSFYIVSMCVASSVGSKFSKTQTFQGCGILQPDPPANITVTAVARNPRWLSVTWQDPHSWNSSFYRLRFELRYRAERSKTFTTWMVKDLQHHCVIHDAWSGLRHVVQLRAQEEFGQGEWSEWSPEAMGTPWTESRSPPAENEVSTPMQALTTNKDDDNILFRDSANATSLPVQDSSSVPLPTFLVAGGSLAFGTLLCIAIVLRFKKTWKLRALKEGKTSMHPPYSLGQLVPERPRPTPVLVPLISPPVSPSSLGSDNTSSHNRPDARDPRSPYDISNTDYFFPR
Alpha-2B adrenergic receptor (Rattus norvegicus), sequence (P19328 whole entry): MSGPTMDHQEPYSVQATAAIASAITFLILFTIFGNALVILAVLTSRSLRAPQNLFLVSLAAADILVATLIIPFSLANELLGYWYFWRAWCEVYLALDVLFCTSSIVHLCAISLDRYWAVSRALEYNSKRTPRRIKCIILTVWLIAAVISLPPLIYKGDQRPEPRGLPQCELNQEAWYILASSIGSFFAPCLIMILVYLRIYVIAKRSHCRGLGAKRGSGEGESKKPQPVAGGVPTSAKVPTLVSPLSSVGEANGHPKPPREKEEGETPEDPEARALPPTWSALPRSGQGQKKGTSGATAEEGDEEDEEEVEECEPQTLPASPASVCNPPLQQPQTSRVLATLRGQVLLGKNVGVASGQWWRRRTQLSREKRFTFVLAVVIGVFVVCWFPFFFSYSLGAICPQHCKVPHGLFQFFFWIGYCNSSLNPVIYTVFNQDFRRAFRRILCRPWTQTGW

residual activity [1]: 87% | residual activity [2]: 73% | residual activity [4]: 90% | IC50 [5]: > 10 µM (not active) | residual activity [6]: 92% | residual activity [7]: 97% | residual activity [8]: 91% | residual activity [10]: 107% | residual activity [11]: 98% | residual activity [12]: 110% | residual activity [13]: 87% | residual activity (Rattus norvegicus [14]): 90% | residual activity [15]: 108% | residual activity [16]: 99% | residual activity [17]: 85% | residual activity [19]: 104% | residual activity [21]: 94% | residual activity [23]: 91% | residual activity [24]: 98% | IC50 [25]: > 10 µM (not active) | residual activity (Rattus norvegicus [26]): 100% | residual activity [27]: 100% | residual activity [28]: 80% | residual activity (Cavia porcellus [29]): 100% | residual activity [30]: 102% | residual activity [31]: 84% | residual activity (Cavia porcellus [32]): 97%
SMILES: N=C(N)NCCC[C@@H](NC(=O)C(c1ccccc1)c1ccccc1)C(=O)NCc1ccc(CNC(N)=O)cc1
residual activity [3]: 61% | residual activity [9]: 86% | activity at 10 µM (hERG (KCNH2)): 79% (not active) | residual activity [18]: 114% | residual activity [20]: 40% | residual activity [22]: 91%
